Results as given in patent US7223791B2, “Function regulator for retinoid relative receptor” (Takeda Pharmaceutical Company Limited, priority 2001, dated 2007).

melting point	SMILES
172 to 173 °C	COC(=O)c1ccc(-c2nnc(-c3ccccc3)o2)cc1 [Example 45, methyl 4-(5-phenyl-1,3,4-oxadiazol-2-yl)benzoate]
188 to 189 °C	COC(=O)c1ccc(-c2nc(-c3ccc(C(F)(F)F)cc3)no2)c(NC(=O)C(F)(F)F)c1 [Example 65, methyl 3-trifluoroacetylamino-4-[3-(4-trifluoromethylphenyl)-1,2,4-oxadiazol-5-yl]benzoate]
> 300 °C	O=C(O)c1ccc(-c2nnc(-c3ccc(C(F)(F)F)cc3)o2)cc1 [Example 49, 4-[5-(4-trifluoromethylphenyl)-1,3,4-oxadiazol-2-yl]benzoic acid]
> 300 °C	Nc1ccccc1-c1nnc(-c2ccc(C(=O)O)cc2)o1 [Example 55, 4-[5-(2-aminophenyl)-1,3,4-oxadiazol-2-yl]benzoic acid]
239 to 240 °C	O=C(O)c1ccc(-c2nnc(-c3ccccc3[N+](=O)[O-])o2)cc1 [Example 52, 4-[5-(2-nitrophenyl)-1,3,4-oxadiazol-2-yl]benzoic acid]
292 to 293 °C	O=C(O)c1ccc(-c2nc(-c3cccc(Oc4ccccc4)c3)no2)cc1 [Example 79, 4-[3-(3-phenoxyphenyl)-1,2,4-oxadiazol-5-yl]benzoic acid]
254 to 255 °C	O=C(O)c1ccc(-c2nc(-c3ccccc3)ccc2Cl)cc1 [Example 2, 4-(3-chloro-6-phenyl-2-pyridyl)benzoic acid]
174 to 175 °C	CCOC(=O)c1ccc(-c2nnc(-c3ccccc3N)o2)cc1 [Example 54, ethyl 4-[5-(2-aminophenyl)-1,3,4-oxadiazol-2-yl]benzoate]
> 300 °C	O=C(O)c1ccc(-c2cc(-c3ccc(Cl)cc3)no2)cc1 [Example 25, 4-[3-(4-chlorophenyl)-5-isoxazolyl]benzoic acid]
233 to 235 °C	CC(C)(C)c1ccc(-c2nnc(-c3ccc(C(=O)O)cc3[N+](=O)[O-])o2)cc1 [Example 70, 4-[5-(4-t-butylphenyl)-1,3,4-oxadiazol-2-yl]-3-nitrobenzoic acid]
243 to 244 °C	COC(=O)c1ccc(-c2n[nH]c(-c3ccccc3)n2)cc1 [Example 36, methyl 4-(5-phenyl-1H-1,2,4-triazol-3-yl)benzoate]
151 to 152 °C	O=Cc1cccc(-c2cc(-c3ccc(C(F)(F)F)cc3)no2)c1 [Example 82, 3-[3-(4-trifluoromethylphenyl)-5-isoxazolyl]benzaldehyde]
257 to 258 °C	O=C(O)c1ccc(-c2nc(-c3ccc(Cl)cc3)no2)c([N+](=O)[O-])c1 [Example 62, 4-[3-(4-chlorophenyl)-1,2,4-oxadiazol-5-yl]-3-nitrobenzoic acid]
145 to 146 °C	O=Cc1ccc(-c2noc(-c3ccc(C(F)(F)F)cc3)n2)cc1 [Example 77, 4-[5-(4-trifluoromethylphenyl)-1,2,4-oxadiazol-3-yl]benzaldehyde]
183 to 184 °C	COC(=O)c1ccc(-c2cc(-c3ccc(C(F)(F)F)cc3)on2)cc1 [Example 32, methyl 4-[5-(4-trifluoromethylphenyl)-3-isoxazolyl]benzoate]
210 to 211 °C	COC(=O)c1ccc(-c2nnc(-c3ccc(C(C)(C)C)cc3)o2)cc1 [Example 47, methyl 4-[5-(4-t-butylphenyl)-1,3,4-oxadiazol-2-yl]benzoate]
> 300 °C	O=C(O)c1ccc(-c2nnc(-c3ccccc3)o2)cc1 [Example 48, 4-[5-phenyl-1,3,4-oxadiazol-2-yl]benzoic acid]
272 to 273 °C	O=C(O)c1cc(-c2ccc(-c3ccc(C(F)(F)F)cc3)o2)ccc1O [Example 12, 5-[5-(4-trifluoromethylphenyl)-2-furyl]salicylic acid]
> 300 °C	Nc1cc(C(=O)O)ccc1-c1nnc(-c2ccc(C(F)(F)F)cc2)o1 [Example 71, 3-amino-4-[5-(4-trifluoromethylphenyl)-1,3,4-oxadiazol-2-yl]benzoic acid]
99 to 100 °C	COC(=O)c1cccc(-c2cc(-c3ccccc3)on2)c1 [Example 20, methyl 3-(5-phenyl-3-isoxazolyl)benzoate]
> 300 °C	O=C(O)c1ccc(-c2n[nH]c(-c3ccccc3)n2)cc1 [Example 38, 4-(5-phenyl-1H-1,2,4-triazol-3-yl)benzoic acid]
195 to 196 °C	COC(=O)c1ccc(-c2nc(-c3ccc(C(C)(C)C)cc3)no2)c(N)c1 [Example 74, methyl 3-amino-4-[3-(4-t-butylphenyl)-1,2,4-oxadiazol-5-yl]benzoate]
205 to 206 °C	COC(=O)c1ccc(-c2cc(-c3ccccc3)no2)cc1 [Example 17, methyl 4-(3-phenyl-5-isoxazolyl)benzoate]
293 to 294 °C	O=C(O)c1ccc(-c2nc(-c3ccc(C(F)(F)F)cc3)no2)cc1 [Example 42, 4-[3-(4-trifluoromethylphenyl)-1,2,4-oxadiazol-5-yl]benzoic acid]

melting point	SMILES
243 to 244 °C	Cn1nc(-c2ccc(C(=O)O)cc2)nc1-c1ccccc1 [Example 39, 4-(1-methyl-5-phenyl-1H-1,2,4-triazol-3-yl)benzoic acid]
233 to 234 °C	O=C(O)c1ccc(-c2nc(-c3ccc(C(F)(F)F)cc3)no2)c([N+](=O)[O-])c1 [Example 63, 3-nitro-4-[3-(4-trifluoromethylphenyl)-1,2,4-oxadiazol-5-yl]benzoic acid]
177 to 178 °C	COC(=O)c1ccc(-c2nc(-c3ccc(C(F)(F)F)cc3)no2)cc1 [Example 40, methyl 4-[3-(4-trifluoromethylphenyl)-1,2,4-oxadiazol-5-yl]benzoate]
112 to 113 °C	COC(=O)c1ccc(-c2nc(-c3ccc(Oc4ccccc4)cc3)no2)cc1 [Example 41, methyl 4-[3-(4-phenoxyphenyl)-1,2,4-oxadiazol-5-yl]benzoate]
142 to 143 °C	COC(=O)c1ccc(-c2nnc(-c3ccc(C(C)(C)C)cc3)o2)c([N+](=O)[O-])c1 [Example 68, methyl 4-[5-(4-t-butylphenyl)-1,3,4-oxadiazol-2-yl]-3-nitrobenzoate]
97 to 98 °C	O=C(OCc1ccccc1)c1cc(-c2ccc(-c3ccc(C(F)(F)F)cc3)o2)ccc1OCc1ccccc1 [Example 11, benzyl 2-benzyloxy-5-[5-(4-trifluoromethylphenyl)-2-furyl]benzoate]
167 to 168 °C	COC(=O)c1ccc(-c2nc(-c3ccccc3)n(C)n2)cc1 [Example 37, methyl 4-(1-methyl-5-phenyl-1H-1,2,4-triazol-3-yl)benzoate]
225 to 226 °C	COC(=O)c1ccc(-c2cc(-c3ccc(Cl)cc3)on2)cc1 [Example 23, methyl 4-[5-(4-chlorophenyl)-3-isoxazolyl]benzoate]
189 to 190 °C	O=Cc1ccc(-c2nnc(-c3ccccc3[N+](=O)[O-])o2)cc1 [Example 81, 4-[5-(2-nitrophenyl)-1,3,4-oxadiazol-2-yl]benzaldehyde]
294 to 296 °C (dec.)	Nc1cc(C(=O)O)ccc1-c1nc(-c2ccc(Cl)cc2)no1 [Example 64, 3-amino-4-[3-(4-chlorophenyl)-1,2,4-oxadiazol-5-yl]benzoic acid]
173 to 174 °C	COC(=O)c1ccc(-c2nnc(-c3ccc(C(F)(F)F)cc3)o2)c([N+](=O)[O-])c1 [Example 67, methyl 3-nitro-4-[5-(4-trifluoromethylphenyl)-1,3,4-oxadiazol-2-yl]benzoate]
201 to 202 °C	COC(=O)c1ccc(-c2cc(-c3ccccc3)on2)cc1 [Example 21, methyl 4-(5-phenyl-3-isoxazolyl)benzoate]
> 300 °C	O=C(O)c1ccc(-c2nnc(-c3ccc(C(F)(F)F)cc3)s2)cc1 [Example 59, 4 [5-(4-trifluoromethylphenyl)-1,3,4-thiadiazol-2-yl]benzoic acid]
> 300 °C	O=C(O)c1ccc(-c2cc(-c3ccccc3)no2)cc1 [Example 24, 4-(3-phenyl-5-isoxazolyl)benzoic acid]
182 to 183 °C	O=C(O)c1ccccc1-c1ccc(-c2ccc(C(F)(F)F)cc2)o1 [Example 8, 2-[5-(4-trifluoromethylphenyl)-2-furyl]benzoic acid]
278 to 279 °C	O=C(O)c1ccc(-c2nc(-c3ccc(Oc4ccccc4)cc3)no2)cc1 [Example 43, 4-[3-(4-phenoxyphenyl)-1,2,4-oxadiazol-5-yl]benzoic acid]
189 to 190 °C	COC(=O)c1ccc(-c2nc(-c3ccc(Cl)cc3)no2)c([N+](=O)[O-])c1 [Example 60, methyl 4-[3-(4-chlorophenyl)-1,2,4-oxadiazol-5-yl]-3-nitrobenzoate]
266 to 268 °C	CC(C)(C)c1ccc(-c2nnc(-c3ccc(C(=O)O)cc3N)o2)cc1 [Example 72, 3-amino-4-[5-(4-t-butylphenyl)-1,3,4-oxadiazol-2-yl]benzoic acid]
> 300 °C	Nc1cc(C(=O)O)ccc1-c1nc(-c2ccc(C(F)(F)F)cc2)no1 [Example 66, 3-amino-4-[3-(4-trifluoromethylphenyl)-1,2,4-oxadiazol-5-yl]benzoic acid]
127 to 128 °C	CCOC(=O)c1ccc(-c2nnc(-c3ccccc3[N+](=O)[O-])o2)cc1 [Example 53, ethyl 4-[5-(2-nitrophenyl)-1,3,4-oxadiazol-2-yl]benzoate]
254 to 255 °C	O=C(O)c1ccc(-c2nnc(-c3ccc(C(F)(F)F)cc3)o2)c([N+](=O)[O-])c1 [Example 69, 3-nitro-4-[5-(4-trifluoromethylphenyl)-1,3,4-oxadiazol-2-yl]benzoic acid]
227 to 228 °C	COC(=O)c1ccc(-c2nc(-c3ccc(Cl)cc3)no2)c(N)c1 [Example 75, methyl 3-amino-4-[3-(4-chlorophenyl)-1,2,4-oxadiazol-5-yl]benzoate]
139 to 140 °C	COC(=O)c1cccc(-c2cc(-c3ccc(C(F)(F)F)cc3)on2)c1 [Example 31, methyl 3-[5-(4-trifluoromethylphenyl)-3-isoxazolyl]benzoate]
